Test results taken from patent EP4653003A1, “PHARMACEUTICAL COMPOSITION HAVING CERIUM COMPOUND CONTAINING TRIVALENT CERIUM AS ACTIVE INGREDIENT” (Applause Pharma Co., Ltd., priority 2023, dated 2024).

Experiments:
[1] = tested on: adenine nephropathy model rats; assay: Uremic toxin lowering action by cerium chloride: indoxyl sulfate in whole blood by HPLC; type: in vivo; conditions: blood collected by dissection; feed of adenine combined with cerium chloride
Procedure: A solvent for precipitation (5.56 µmol/L 2-naphthalenesulfonic acid solution in acetonitrile) and a blood sample (whole blood) were mixed in a 1.5 mL polypropylene tube, the mixture was allowed to stand still at room temperature, and then centrifuged to cause solid-liquid separation, thereby obtaining a supernatant. A 10 mmol/L aqueous ammonium acetate solution was added to the thus obtained supernatant, and the mixture was centrifuged to obtain a supernatant. The operation above diluted the blood sample 50 times, with the final concentration of the thus-added 2-naphthalenesulfonic acid adjusted to 1 µmol/L.
Fig. 19 illustrates a diagram, with the indoxyl sulfate concentration in the blood sample collected by dissection plotted on the ordinate, and with the total mole amount of cerium contained in 100 g of feed plotted on the abscissa.

[2] = tested on: adenine nephropathy model rats; type: in vivo, Slc:Wistar rat (male)
From the text: • · Rat: Slc:Wistar rat (male) delivered at 12 weeks of age (Japan SLC, Inc.) • · Powder feed: AIN-93G powder feed (Funabashi Farm Co., Ltd.) • · Feed for laboratory animal: Labo MR Stock (Nosan Corporation) • · Adenine: (Tokyo Chemical Industry Co., Ltd.) • · Cerium oxide dispersion: Cerium oxide dispersion prepared in [Preparation of Cerium Oxide Dispersion]
• (i) Weighed was 250 g of a powder feed, which was then kneaded with a kitchen machine. • (ii) After kneaded with a kitchen machine for 3 minutes, the feed adhered on the wall surface was scraped off, and then kneaded again for 3 minutes. Approximately 100 mL of hot water was then added evenly. • (iii) The feed was once put together by hands, and further kneaded with the kitchen machine until it became homogeneous. • (iv) The thus kneaded feed was shaped into a rod through a sausage machine. • (v) The thus shaped feed was cut into a cylindrical shape approximately 2.5 cm in diameter and 1.5 cm in thickness. • (vi) The thus shaped cylindrical feed was dried at 38°C in an incubator for two days. • (vii) The feed was weighed to estimate a proportion of residual water content, and dried until the proportion drops to 10% or below. • (viii) The prepared feed was put in a zipper bag, and stored in a refrigerator.
A special feed was prepared by modifying step (ii) for the normal group feed, as described below. (ii) (Ade): While keeping the content under kneading, 0.625 g of adenine was added in small portions, the content was kneaded with a kitchen machine for 3 minutes, the feed adhered on the wall surface was scraped off, and the content was kneaded again for 3 minutes. Approximately 100 mL of hot water was then added evenly.
A special feed was prepared by modifying steps (i) and (ii) for (2) Adenine Group Feed, as described below. • (i) (Ade + Dispersion (A)): Weighed was 246.1 g of the powder feed, which was then kneaded with a kitchen machine. • (ii) (Ade + Dispersion (A)): While keeping the content under kneading, 0.625 g of adenine was added in small portions, the content was kneaded with the kitchen machine for 3 minutes, the feed adhered on the wall surface was scraped off, and the content was kneaded again for 3 minutes. Next, while keeping the content under kneading, 32.7 g of cerium oxide dispersion was added in small portions, the content was kneaded with the kitchen machine for 3 minutes, the feed adhered on the wall surface was scraped off, and the content was kneaded again for 3 minutes. Approximately 70 mL of hot water was then added evenly. […]

[3] = blood collected by dissection on Day 28, substance mixed in adenine feed, trend against content in 100 g feed

## cerium(III) chloride heptahydrate [cerium chloride]
[1]
  indoxyl sulfate concentration in whole blood: declining tendency
[2]; [3]
  blood urea nitrogen (BUN): decline as the cerium chloride content in the feed increased
  serum creatinine (CRE): decline as the cerium chloride content in the feed increased
  serum phosphorus (IP): decline as the cerium chloride content in the feed increased
[2]; rat, in vivo
  alanine aminotransferase (ALT): equivalent to that in the normal group
